Experiment: Biodistribution of [18F]FP-6b in normal mice (Table 4)
Type: in vivo, ICR mice
Settings: iv
Protocol: After anesthetizing ICR mice (22-25 g male) with isoflurane, 0.15 mL of a 0.1% bovine serum albumin solution containing [^18F]FP-(+)-6b (10-20 μCi) was injected directly into the tail vein. The mice (n=3 for each time point) were sacrificed by cervical dislocation (under isoflurane anesthesia) at indicated time-points post-injection. The organs of interest were removed and weighed, and the radioactivity was counted with an automatic gamma counter. The percentage dose per organ was calculated by a comparison of the tissue counts to suitably diluted aliquots of the injected material. The total activity of the blood was calculated under the assumption that it was 7% of the total body weight. The % does/g of samples was calculated by comparing the sample counts with the count of the diluted initial dose.

## COc1cc2c(cc1OCCC[18F])CCN1C[C@@H](CC(C)C)[C@H](O)C[C@H]21 [[^18F]-(+)-6b]
2 min
  Organ distribution Blood: 2.12 ± 0.17 % dose/g
  Organ distribution Bone: 1.95 ± 0.30 % dose/g
  Organ distribution Brain: 4.82 ± 0.86 % dose/g
  Organ distribution Heart: 5.47 ± 1.19 % dose/g
  Organ distribution Kidney: 10.7 ± 2.02 % dose/g
  Organ distribution Liver: 24.6 ± 1.37 % dose/g
  Organ distribution Lung: 9.04 ± 4.71 % dose/g
  Organ distribution Muscle: 0.78 ± 0.11 % dose/g
  Organ distribution Skin: 1.05 ± 0.12 % dose/g
  Organ distribution Spleen: 7.38 ± 1.62 % dose/g
  Ratio (vs CB) Cortex: 0.97
  Ratio (vs CB) Hippocampus: 0.97
  Ratio (vs CB) Hypothalamus: 1.37
  Ratio (vs CB) Remainder: 1.01
  Ratio (vs CB) Striatum: 1.56
  Regional brain distribution Cerebellum (CB): 4.67 ± 0.74 % dose/g
  Regional brain distribution Cortex: 4.54 ± 0.66 % dose/g
  Regional brain distribution Hippocampus: 4.54 ± 0.72 % dose/g
  Regional brain distribution Hypothalamus: 6.41 ± 1.11 % dose/g
  Regional brain distribution Remainder: 4.71 ± 0.74 % dose/g
  Regional brain distribution Striatum: 7.28 ± 0.80 % dose/g
30 min
  Organ distribution Blood: 1.73 ± 0.15 % dose/g
  Organ distribution Bone: 4.88 ± 1.43 % dose/g
  Organ distribution Brain: 2.05 ± 0.37 % dose/g
  Organ distribution Heart: 2.43 ± 0.22 % dose/g
  Organ distribution Kidney: 5.81 ± 1.15 % dose/g
  Organ distribution Liver: 22.2 ± 1.98 % dose/g
  Organ distribution Lung: 3.17 ± 0.33 % dose/g
  Organ distribution Muscle: 1.10 ± 0.12 % dose/g
  Organ distribution Skin: 1.42 ± 0.03 % dose/g
  Organ distribution Spleen: 3.69 ± 0.25 % dose/g
  Ratio (vs CB) Cortex: 1.34
  Ratio (vs CB) Hippocampus: 1.59
  Ratio (vs CB) Hypothalamus: 3.52
  Ratio (vs CB) Remainder: 1.45
  Ratio (vs CB) Striatum: 4.51
  Regional brain distribution Cerebellum (CB): 1.41 ± 0.23 % dose/g
  Regional brain distribution Cortex: 1.88 ± 0.63 % dose/g
  Regional brain distribution Hippocampus: 2.23 ± 0.59 % dose/g
  Regional brain distribution Hypothalamus: 4.95 ± 0.84 % dose/g
  Regional brain distribution Remainder: 2.04 ± 0.28 % dose/g
  Regional brain distribution Striatum: 6.34 ± 1.01 % dose/g
60 min
  Organ distribution Blood: 0.97 ± 0.04 % dose/g
  Organ distribution Bone: 9.22 ± 0.48 % dose/g
  Organ distribution Brain: 1.10 ± 0.32 % dose/g
  Organ distribution Heart: 1.67 ± 0.02 % dose/g
  Organ distribution Kidney: 3.48 ± 0.34 % dose/g
  Organ distribution Liver: 14.5 ± 0.91 % dose/g
  Organ distribution Lung: 2.00 ± 0.05 % dose/g
  Organ distribution Muscle: 0.73 ± 0.04 % dose/g
  Organ distribution Skin: 1.06 ± 0.04 % dose/g
  Organ distribution Spleen: 2.11 ± 0.05 % dose/g
  Ratio (vs CB) Cortex: 1.00
  Ratio (vs CB) Hippocampus: 1.32
  Ratio (vs CB) Hypothalamus: 2.71
  Ratio (vs CB) Remainder: 1.45
  Ratio (vs CB) Striatum: 4.74
  Regional brain distribution Cerebellum (CB): 0.89 ± 0.01 % dose/g
  Regional brain distribution Cortex: 0.89 ± 0.11 % dose/g
  Regional brain distribution Hippocampus: 1.18 ± 0.12 % dose/g
  Regional brain distribution Hypothalamus: 2.42 ± 0.52 % dose/g
  Regional brain distribution Remainder: 1.30 ± 0.08 % dose/g
  Regional brain distribution Striatum: 4.24 ± 0.78 % dose/g
2 hr
  Organ distribution Blood: 0.57 ± 0.09 % dose/g
  Organ distribution Bone: 12.7 ± 1.84 % dose/g
  Organ distribution Brain: 0.68 ± 0.11 % dose/g
  Organ distribution Heart: 0.91 ± 0.14 % dose/g
  Organ distribution Kidney: 2.28 ± 0.34 % dose/g
  Organ distribution Liver: 9.81 ± 0.94 % dose/g
  Organ distribution Lung: 1.26 ± 0.13 % dose/g
  Organ distribution Muscle: 0.53 ± 0.05 % dose/g
  Organ distribution Skin: 0.67 ± 0.06 % dose/g
  Organ distribution Spleen: 1.40 ± 0.35 % dose/g
  Ratio (vs CB) Cortex: 0.96
  Ratio (vs CB) Hippocampus: 1.09
  Ratio (vs CB) Hypothalamus: 1.90
  Ratio (vs CB) Remainder: 1.15
  Ratio (vs CB) Striatum: 3.28
  Regional brain distribution Cerebellum (CB): 0.54 ± 0.09 % dose/g
  Regional brain distribution Cortex: 0.51 ± 0.02 % dose/g
  Regional brain distribution Hippocampus: 0.58 ± 0.15 % dose/g
  Regional brain distribution Hypothalamus: 1.02 ± 0.11 % dose/g
  Regional brain distribution Remainder: 0.62 ± 0.10 % dose/g
  Regional brain distribution Striatum: 1.76 ± 0.33 % dose/g
4 hr
  Organ distribution Blood: 0.06 ± 0.02 % dose/g
  Organ distribution Bone: 3.49 ± 0.35 % dose/g
  Organ distribution Brain: 0.16 ± 0.03 % dose/g
  Organ distribution Heart: 0.12 ± 0.01 % dose/g
  Organ distribution Kidney: 0.31 ± 0.02 % dose/g
  Organ distribution Liver: 1.58 ± 0.08 % dose/g
  Organ distribution Lung: 0.19 ± 0.01 % dose/g
  Organ distribution Muscle: 0.06 ± 0.01 % dose/g
  Organ distribution Skin: 0.09 ± 0.01 % dose/g
  Organ distribution Spleen: 0.17 ± 0.02 % dose/g
  Ratio (vs CB) Cortex: 0.87
  Ratio (vs CB) Hippocampus: 0.99
  Ratio (vs CB) Hypothalamus: 1.15
  Ratio (vs CB) Remainder: 1.02
  Ratio (vs CB) Striatum: 1.11
  Regional brain distribution Cerebellum (CB): 0.41 ± 0.02 % dose/g
  Regional brain distribution Cortex: 0.36 ± 0.02 % dose/g
  Regional brain distribution Hippocampus: 0.41 ± 0.01 % dose/g
  Regional brain distribution Hypothalamus: 0.47 ± 0.01 % dose/g
  Regional brain distribution Remainder: 0.42 ± 0.05 % dose/g
  Regional brain distribution Striatum: 0.46 ± 0.13 % dose/g

Source: patent US8562949B2, “Radiolabeled dihydrotetrabenazine derivatives and their use as imaging agents” (The Trustees of the University of Pennsylvania, priority 2006, dated 2013)
